Results on one compound are retold here after article PMC9496346, “Controversial Role of Transferrin in the Transport of Ruthenium Anticancer Drugs” (Biomolecules, 2022).

The assay deals with T1, recombinant human transferrin receptor 1 (TfR1).
T1 construct: extracellular domain (Cyst89-Phe760), (His)6-tagged at the N-terminus; purchased Sino Biological, Beijing, China (TfR1); Sigma (human serum, Cat. No. H4522, as source of Tf) 11020-H07H
Put plainly: BLI of Tf–TfR1 binding in dilute human serum pre-treated with metal complexes. As to conditions: serum incubated with 100 μM Ru complex or 60 μM Fe(III) as citrate. Here is the method: The effects of Ru complexes on the Tf cycle were determined by BLI using previously developed protocols. The instrument used was a single-channel BLItz analyser (ForteBio, Menlo Park, CA, USA) with a tube holder (250 µL solution volume) and Ni(II)–nta coated optical probes held at 295 ± 1 K. Measurements used the Advanced Kinetics mode. […] Solutions of metal–Tf adducts (typical final Tf concentrations 150 nM or 1.0 µM) were prepared in the binding buffer (Section 2.1). The pH 7.4 binding buffer was used for Tf binding and dissociation from the probe, and the pH 5.6 buffer (Section 2.1) was used to mimic the endosomal step of the Tf cycle. Metal–Tf solutions (A1–A9 in Table 1) were diluted 100–400-fold, cell culture media were diluted 30-fold, and human serum samples were diluted 200-fold with the binding buffer immediately before the BLI measurements. All BLI data were background corrected by using data from buffer only runs with the same TfR1-loaded optical probe. Consistent BLI results were obtained in at least two independent measurements, using different probes and different batches of Tf solutions. Calculations of the Tf–TfR1 binding constants were performed using the 1:1 binding model (BLItz software, Version 1.1, Forte-Bio 2013), which can be used as a reasonable approximation of the physiological 2:2 Tf–TfR1 binding mechanism at low Tf concentrations. […]
(b) BLI response curves for dilute human serum samples in the presence or absence of metal complexes. Intact commercial human serum (Sigma H4522) was incubated with Fe(III)-citrate (60 µM) or with Ru complexes (100 µM) for 4 h at 310 K, then diluted 200-fold (to [Tf] ~ 150 nM) with the binding buffer (20 mM HEPES, 25 mM NaHCO3, 140 mM NaCl, pH = 7.4), and analyzed with the TfR1-loaded BLI probe. Designations of the steps in Tf cycle (A–D) correspond to those in Figure 1d-f, main text. Calculated KD values (1:1 binding model, BLItz software) were as follows: 8.0 nM (serum + Fe(III) citrate); or 28 ± 2 nM (serum in the presence or absence of Ru complexes). Typical anticancer Ru complexes, NAMI-A, KP1019 and RAPTA-C, were synthesized and characterized previously in the Lay group.
(1 picture or pasted object on this page, not shown here)

Molecules are shown by their SMILES.

Regarding `[Cl-].[Cl-].[Cl-].[Cl-].[Ru+3].c1ccc2[nH][nH+]cc2c1.c1ccc2[nH]ncc2c1.c1ccc2[nH]ncc2c1` [KP1019, (IndH)[Ru^IIICl4(Ind)2]], the “Effect on Tf–TfR1 binding in whole human serum” value is “did not have any effect”.
